Measurements taken from US12582645B2, “Chemokine CXCR4 receptor modulators and uses related thereto” (Emory University, priority 2017, dated 2026).

target: T1, CXCR4 (Homo sapiens, UniProt P61073); experiment: CXCR4-CEM calcium flux assay, antagonist mode (inhibition of SDF-1α-induced calcium flux); assay type: cell-based; conditions: CCRF-CEM cells expressing endogenous CXCR4, stimulated with 4 nM SDF-1α, read-out: CXCR4 Ca^2+ Flux IC50
T1 construct: Human T lymphoblast cells (CCRF-CEM) expressing endogenous CXCR4 receptors; endogenous in cells; host or cells: CCRF-CEM (human T lymphoblast cells)
Method: CXCR4-CEM Calcium Flux Assays
Exemplary compounds of the invention were tested for their ability to induce or inhibit calcium flux in CCRF-CEM cells, a human cell line that endogenously expresses CXCR4. Activation of CXCR4 stimulates G protein signaling which, in CCRF-CEM cells, causes a series of downstream events that leads to the release of intracellular calcium stores, or calcium flux. Calcium ion concentrations can be easily measured using a wide variety of […] calcium indicators and, as a result, calcium flux assays are commonly employed methods for measuring G protein-coupled receptor (GPCR) activity. Because the therapeutic potential of CXCR4 antagonists as anti-cancer agents likely relies on their ability to inhibit CXCR4-mediated G protein signaling, this assay was utilized as a first-pass measure of inhibitor potency.
The cells were then equilibrated to room temperature for 30 minutes before assay. […] For “antagonist mode” assessment, the cells are subsequently incubated for 25 minutes at room temperature. SDF-1α (R&D System Cat #350-NS/CF) was then added at a final concentration of 4 nM to stimulate the cells. Inhibition of SDF-1α-induced calcium flux was monitored by FDSS6000 for 90 seconds.
After correcting for background, EC50 values were determined. […] Inhibition data for the test compound over a range of concentrations was plotted as percentage inhibition of the test compound as compared to an internal control compound.

T1 sequence (P61073 whole entry): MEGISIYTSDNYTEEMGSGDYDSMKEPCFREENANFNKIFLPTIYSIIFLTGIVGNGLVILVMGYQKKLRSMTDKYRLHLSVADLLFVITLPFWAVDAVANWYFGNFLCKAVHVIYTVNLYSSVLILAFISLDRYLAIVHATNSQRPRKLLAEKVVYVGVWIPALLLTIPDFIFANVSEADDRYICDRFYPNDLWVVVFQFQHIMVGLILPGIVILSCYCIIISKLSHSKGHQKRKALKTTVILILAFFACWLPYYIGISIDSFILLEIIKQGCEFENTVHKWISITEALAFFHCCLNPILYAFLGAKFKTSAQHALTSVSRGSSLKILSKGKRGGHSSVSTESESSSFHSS

Which IC50 does the source give for `CN(C[C@H]1Cc2c(cccc2NCCN2CCOCC2)CN1)[C@H]1CCCc2cccnc21` [EMU173, (S)—N-methyl-N—(((R)-5-((2-morpholinoethyl)amino)-1,2,3,4-tetrahydroisoquinolin-3-yl)methyl)-5,6,7,8-tetrahydroquinolin-8-amine] here?
Its IC50 is 0.0215 µM.

`C/C(=C/CN(C[C@H]1Cc2ccccc2CN1)[C@H]1CCCc2cccnc21)CN` [EMU177] was tested. Which IC50 did it give?
Its IC50 is 0.0132 µM.

For `C(=C\CN(C[C@H]1Cc2ccccc2CN1)[C@H]1CCCc2cccnc21)/CNCC1CCOCC1` [EMU180, (E)-N1-((tetrahydro-2H-pyran-4-yl)methyl)-N4-(((R)-1,2,3,4-tetrahydroisoquinolin-3-yl)methyl)-N4-((S)-5,6,7,8-tetrahydroquinolin-8-yl)but-2-ene-1,4-diamine], which IC50 is on record?
Its IC50 is 0.0242 µM.

With `CC1(C)CCC(NCc2ccc(CN(C[C@H]3Cc4ccccc4CN3)[C@H]3CCCc4cccnc43)cc2)CC1` [EMU181, (S)—N-(4-(((4,4-dimethylcyclohexyl)amino)methyl)benzyl)-N—(((R)-1,2,3,4-tetrahydroisoquinolin-3-yl)methyl)-5,6,7,8-tetrahydroquinolin-8-amine] as the molecule, how does the IC50 read?
The IC50 was 0.661 µM.

How did the IC50 turn out when `FC1(F)CCC(NCc2ccc(CN(C[C@H]3Cc4ccccc4CN3)[C@H]3CCCc4cccnc43)cc2)CC1` [EMU182, (S)—N-(4-(((4,4-difluorocyclohexyl)amino)methyl)benzyl)-N—(((R)-1,2,3,4-tetrahydroisoquinolin-3-yl)methyl)-5,6,7,8-tetrahydroquinolin-8-amine] was run?
Its IC50 is 0.143 µM.

Which IC50 does the source give for `CN(C[C@H]1Cc2c(cccc2N2CCN(C3COC3)CC2)CN1)[C@H]1CCCc2cccnc21` [EMU183] here?
Its IC50 is 0.38 µM.

For `c1cnc2c(c1)CCC[C@@H]2N(CCCN1CCNCC1)Cc1nc2ccccc2[nH]1` [EMU185, (S)—N-((1H-benzo[d]imidazole-2yl)methyl)-N-(3-(piperazine-1yl)propyl)-5,6,7,8-tetrahydroquinolin-8-amine], which IC50 is on record?
The IC50 was 0.0453 µM.

For `c1cnc2c(c1)CCC[C@@H]2N(CCCN1CCNCC1)Cc1nc2ccccc2s1` [EMU186, (S)—N-((1H-benzo[d]thiazol-2yl)methyl)-N-(3-(piperazine-1yl)propyl)-5,6,7,8-tetrahydroquinolin-8-amine], which IC50 is on record?
Its IC50 is 1.2 µM.

`c1cnc(CN(CCCN2CCNCC2)[C@H]2CCCc3cccnc32)nc1` [EMU187, (S)—N-(3-(piperazin-1yl)propyl)-N-(pyrimidin-2ylmethyl)-5,6,7,8-tetrahydroquinolin-8-amine] was tested. Which IC50 did it give?
The IC50 was 4.32 µM.

How did the IC50 turn out when `CN(C[C@H]1Cc2c(cccc2N2CCN(C3CC3)CC2)CN1)[C@H]1CCCc2cccnc21` [EMU196] was run?
The IC50 was 0.0235 µM.

With `CC(C)N1CCN(c2cccc3c2C[C@H](CN(C)[C@H]2CCCc4cccnc42)NC3)CC1` [EMU197] as the molecule, how does the IC50 read?
The IC50 was 0.0169 µM.

`C[C@@H]1CN(c2cccc3c2C[C@H](CN(C)[C@H]2CCCc4cccnc42)NC3)C[C@H](C)N1C` [EMU198] was tested. Which IC50 did it give?
Its IC50 is 0.0141 µM.

For `CCN1CCN(c2cccc3c2C[C@H](CN(C)[C@H]2CCCc4cccnc42)NC3)CC1` [EMU199], which IC50 is on record?
The IC50 was 0.0138 µM.

Which IC50 does the source give for `CN(C[C@H]1Cc2c(cccc2N2C[C@H]3C[C@@H]2CN3)CN1)[C@H]1CCCc2cccnc21` [EMU200] here?
The IC50 was 0.0207 µM.

With `CN(C[C@H]1Cc2c(cccc2N2CCN(c3ncccn3)CC2)CN1)[C@H]1CCCc2cccnc21` [EMU203] as the molecule, how does the IC50 read?
The IC50 was 0.0307 µM.

How did the IC50 turn out when `C/C(=C/CN)CN(C[C@H]1Cc2ccccc2CN1)[C@H]1CCCc2cccnc21` [EMU208] was run?
Its IC50 is 0.0282 µM.

Which IC50 does the source give for `NC(=O)NC/C=C\CN(C[C@H]1Cc2ccccc2CN1)[C@H]1CCCc2cccnc21` [EMU211] here?
The IC50 was 0.207 µM.

For `c1ccc2c(c1)CN[C@@H](CN(Cc1ccc(CNC3CCOCC3)cc1)[C@H]1CCCc3cccnc31)C2` [EMU217, (S)—N-(4-(((tetrahydro-2H-pyran-4-yl)amino)methyl)benzyl)-N—(((R)-1,2,3,4-tetrahydroisoquinolin-3-yl)methyl)-5,6,7,8-tetrahydroquinolin-8-amine], which IC50 is on record?
Its IC50 is 0.0903 µM.

For `c1ccc2c(c1)CN[C@@H](CN(Cc1ccc(CNCc3ccncc3)cc1)[C@H]1CCCc3cccnc31)C2` [EMU218, (S)—N-(4-(((pyridin-4-ylmethyl)amino)methyl)benzyl)-N—(((R)-1,2,3,4-tetrahydroisoquinolin-3-yl)methyl)-5,6,7,8-tetrahydroquinolin-8-amine], which IC50 is on record?
Its IC50 is 0.134 µM.

For `c1ccc(CNCc2ccc(CN(C[C@H]3Cc4ccccc4CN3)[C@H]3CCCc4cccnc43)cc2)nc1` [EMU220, (S)—N-(4-(((pyridin-2-ylmethyl)amino)methyl)benzyl)-N—(((R)-1,2,3,4-tetrahydroisoquinolin-3-yl)methyl)-5,6,7,8-tetrahydroquinolin-8-amine], which IC50 is on record?
Its IC50 is 0.286 µM.

How did the IC50 turn out when `C(=C\CN(C[C@H]1Cc2ccccc2CN1)[C@H]1CCCc2cccnc21)/CNCc1cccnc1` [EMU222, (E)-N1-(pyridin-3-ylmethyl)-N4-(((R)-1,2,3,4-tetrahydroisoquinolin-3-yl)methyl)-N4-((S)-5,6,7,8-tetrahydroquinolin-8-yl)but-2-ene-1,4-diamine] was run?
Its IC50 is 0.0928 µM.

How did the IC50 turn out when `C(=C\CN(C[C@H]1Cc2ccccc2CN1)[C@H]1CCCc2cccnc21)/CNCc1ccccn1` [EMU223, (E)-N1-(pyridin-2-ylmethyl)-N4-(((R)-1,2,3,4-tetrahydroisoquinolin-3-yl)methyl)-N4-((S)-5,6,7,8-tetrahydroquinolin-8-yl)but-2-ene-1,4-diamine] was run?
The IC50 was 0.0583 µM.

Which IC50 does the source give for `CN(C[C@H]1Cc2c(cccc2N2CCN(c3cccc(C(F)(F)F)c3)CC2)CN1)[C@H]1CCCc2cccnc21` [EMU226] here?
The IC50 was over 16.7 µM.

Which IC50 does the source give for `CN1C[C@@H]2CN(c3cccc4c3C[C@H](CN(C)C3CCCc5cccnc53)NC4)C[C@@H]2C1` (some centres unmarked) [EMU227] here?
The IC50 was 0.00956 µM.

Which IC50 does the source give for `CN(C)C1CCN(c2cccc3c2C[C@H](CN(C)[C@H]2CCCc4cccnc42)NC3)CC1` [EMU228] here?
The IC50 was 0.0359 µM.

With `CN1CCN(Nc2cccc3c2C[C@H](CN(C)[C@H]2CCCc4cccnc42)NC3)CC1` [EMU229] as the molecule, how does the IC50 read?
The IC50 was 0.0474 µM.

How did the IC50 turn out when `Cc1cnc2c(c1)CCC[C@@H]2N(C)C[C@H]1Cc2c(cccc2N2CCNCC2)CN1` [EMU230, (S)—N,3-dimethyl-N—(((R)-5-(piperazin-1-yl)-1,2,3,4-tetrahydroisoquinolin-3-yl)methyl)-5,6,7,8-tetrahydroquinolin-8-amine] was run?
Its IC50 is 0.0161 µM.

How did the IC50 turn out when `CN1CCN(c2cccc3c2C[C@H](CN2CCC[C@H]4CCc5cccnc5[C@H]42)NC3)CC1` [EMU232, (4aR,10bS)-1-(((R)-5-(4-methylpiperazin-1-yl)-1,2,3,4-tetrahydroisoquinolin-3-yl)methyl)-1,2,3,4,4a,5,6,10b-octahydro-1,10-phenanthroline] was run?
Its IC50 is 0.0252 µM.

With `CN1Cc2cccc(N3CCNCC3)c2C[C@@H]1CN(C)[C@H]1CCCc2cccnc21` [EMU234] as the molecule, how does the IC50 read?
Its IC50 is 0.032 µM.

With `CN(C[C@H]1Cc2c(cccc2N2C[C@H]3CCN(C)[C@H]3C2)CN1)C1CCCc2cccnc21` (some centres unmarked) [EMU235] as the molecule, how does the IC50 read?
The IC50 was 0.0187 µM.

With `CN(C[C@H]1Cc2c(cccc2N2C[C@@H]3CCN(C)[C@@H]3C2)CN1)C1CCCc2cccnc21` (some centres unmarked) [EMU236] as the molecule, how does the IC50 read?
The IC50 was 0.0114 µM.

How did the IC50 turn out when `CN(C)[C@@H]1CCN(c2cccc3c2C[C@H](CN(C)[C@H]2CCCc4cccnc42)NC3)C1` [EMU237] was run?
The IC50 was 0.0104 µM.

Which IC50 does the source give for `CN1Cc2cccc(N3CCN4CCC[C@@H]4C3)c2C[C@@H]1CN(C)[C@H]1CCCc2cccnc21` [EMU239] here?
Its IC50 is 0.0446 µM.

With `CN1CCC(N(C)c2cccc3c2C[C@H](CN(C)[C@H]2CCCc4cccnc42)NC3)CC1` [EMU240] as the molecule, how does the IC50 read?
Its IC50 is 0.0134 µM.

`CN1Cc2cccc(N3CCN4CCC[C@H]4C3)c2C[C@@H]1CN(C)[C@H]1CCCc2cccnc21` [EMU241] was tested. Which IC50 did it give?
The IC50 was 0.0581 µM.
